According to patent US20250288515A1, “METHOD AND COMPOSITION FOR TREATING LUNG DISEASES” (MannKind Corporation, priority 2022, published 2025):

Experiment: Pharmacokinetic study in rats, pulmonary insufflation versus intravenous injection
Assay type: in vivo
Settings: male Sprague Dawley rats, single dose 0.8 mg/kg, samples 10-240 minutes; FIG. 5
Procedure: Pharmacokinetic studies in rats with Compound I crystalline composite (XC) dry powders-Insufflation studies were performed in rats to deliver doses of dry powders of Compound I, a protein kinase antagonist. The study was performed to determine the pharmacokinetics profile of compound I dry powders made by the process as described above following pulmonary insufflation, or intravenous injection of a single dose of the composition administered in solution to male Sprague Dawley (Charles River Laboratories) adult rats, weighing between 200 g and 250 g at the time of the study. Dry powder comprising 22.1 wt % actual drug content were used and tested at 1 mg/ml in solution to deliver a dose of 0.8 mg/kg to 18 rats in each study group. Rats acclimatized and anesthetized prior to experimentation. Lung and blood samples were taken from the rats at 10, 20, 30, 120, and 240 minutes, post drug administration.

## Cc1cccc(-n2ncc(C)c2-c2cc3cnccc3s2)n1 [compound I, 2 [4-methyl-1-(6-methylpyridin-2yl)-1H-pyrazol-5-yl]thieno-[3,2 c]pyridine]
  Lung content of compound I after insufflation versus IV injection: higher content of compound I was detected in rat lung after insufflation versus IV injection
